For this test, the target named is Programmed cell death protein 1/Programmed cell death 1 ligand 1 (Homo sapiens, UniProt Q15116+Q9NZQ7). The experiment in a line: Homogeneous Time-Resolved Fluorescence (HTRF) Binding Assay: 1. The compound was formulated to 10 concentrations with a 3-fold gradient with 100% DMSO.2. The solution of the compound in DMSO was added to Dilute Buffer, mixed thoroughly, then transferred to a 96-well plate.3. PD-L1 was diluted with Dilute Buffer, then added to the above 96-well plate.4. PD-1 was diluted with Dilute Buffer and added to the above 96-well plate, which was then incubated at room temperature for 30 minutes.5. A portion of anti-tag1-Eu and a portion of anti-tag2-XL665 were added to Detection Buffer, mixed thoroughly and transferred to the above 96-well plate.6. The mixture in the above 96-well plate was incubated at room temperature for 1 to 24 hours.7. HTRF values were read with Envision. Type of test: protein-complex assay. For orientation: In TR-FRET formats the signal depends on donor and acceptor labels being close together.
Sequence of Programmed cell death protein 1/Programmed cell death 1 ligand 1 (Q15116 whole entry): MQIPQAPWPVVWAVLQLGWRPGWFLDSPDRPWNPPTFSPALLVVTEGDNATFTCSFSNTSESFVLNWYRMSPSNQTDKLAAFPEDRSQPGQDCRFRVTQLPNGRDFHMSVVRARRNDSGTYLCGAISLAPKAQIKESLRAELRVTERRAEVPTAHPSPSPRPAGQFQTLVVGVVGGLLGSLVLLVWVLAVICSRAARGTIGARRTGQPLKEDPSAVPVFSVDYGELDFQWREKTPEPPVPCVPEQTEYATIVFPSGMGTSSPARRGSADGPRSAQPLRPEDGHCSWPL
Sequence of Programmed cell death protein 1/Programmed cell death 1 ligand 1 (Q9NZQ7 whole entry): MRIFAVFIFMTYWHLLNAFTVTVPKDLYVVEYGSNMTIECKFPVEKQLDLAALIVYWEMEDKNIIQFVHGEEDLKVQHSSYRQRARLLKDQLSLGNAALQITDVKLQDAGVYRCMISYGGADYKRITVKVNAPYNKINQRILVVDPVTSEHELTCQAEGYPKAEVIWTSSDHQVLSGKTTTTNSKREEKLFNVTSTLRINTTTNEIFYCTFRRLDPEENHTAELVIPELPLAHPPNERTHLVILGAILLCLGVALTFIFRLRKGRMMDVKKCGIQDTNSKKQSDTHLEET

These results are taken from ChEMBL document CHEMBL5728605, “Aromatic acetylene or aromatic ethylene compound, intermediate, preparation method, pharmaceutical composition and use thereof” (2021).

Structures are written as SMILES.

Regarding `COc1cc(/C=C/c2cccc(-c3ccccc3)c2C)cc(OC)c1CN[C@@H](C)C(=O)O`, the IC50 amounted to 0.17 µM.
`COc1cc(/C=C/c2cccc(-c3ccccc3)c2C)cc(OC)c1CN1CCCC[C@H]1C(=O)O`: the IC50 is 0.06 µM.
As for `COc1cc(/C=C/c2cccc(-c3ccccc3)c2C)cc(OC)c1CN[C@H](CO)C(=O)O`, the figure is 0.08 µM.
Turning to `COc1cc(/C=C/c2cccc(-c3ccccc3)c2C)cc(OC)c1CN[C@@H](CO)C(=O)O`, the IC50 is 0.05 µM.

By IC50 is commonly meant the concentration at which inhibition is half-maximal.
